{
  "source": "paper PMC4440766",
  "about": "“Detection of Peptide-Based Nanoparticles in Blood Plasma by ELISA” (PLoS ONE, 2015)",
  "key": {"[1]": {"assay": "ELISA quantification of peptide 5A in blood plasma after intravenous injection of peptide 5A nanoparticles", "assay_type": "in vivo, Wistar rats", "procedure": "(§1) The acrylamide based nanoparticles containing peptide 5A were injected in the lateral tail vein of 3 Wistar rats at a concentration of 17.25 mg of nanoparticle per kg of bodyweight, corresponding to 0.5 mg peptide 5A per kg of bodyweight. Blood samples were collected in lithium heparin plasma microtainer tubes (BD, Franklin Lakes, NJ). A small incision was made in the contralateral tail vein and the blood was collected directly into the tube. Immediately after collecting the blood, the tubes were manually inverted 8 times to ensure mixing with the anti-coagulant. Blood samples were stored on ice for up to 30 minutes before separating the plasma by centrifugation at 2000 g for 10 minutes. No hemolysis was observed.\nSamples were collected from each animal immediately after injection (time point 0) and at 15, 30, 60, 120, 240, 480 minutes after injection. All plasma samples were stored at -80°C until further analysis.\nThe plasma samples were diluted 1/500 in PBS, based on the range of the standard curve and the expected initial plasma concentrations. Streptavidin coated ELISA 96-well microplates (Steffens Biotechnische Analysen, Germany) were rinsed with 100 μl PBS per well and incubated with plasma samples in duplicate, for one hour at room temperature. After washing the wells three times with PBS, the carboxyfluorescein group present on the reporter peptide was detected by incubating with monoclonal (mAb) mouse-anti-fluorescein peroxidase-conjugated IgG (Dianova, Hamburg, Germany) diluted 1:100,000 in PBS with 0.1% BSA for one hour. Subsequently, the wells were washed three times with PBS and incubated with soluble high sensitivity TMB (SDT, Baesweiler, Germany) for 10 minutes in the dark. The enzymatic peroxidase reaction was stopped with 1 M HCl and absorbance at 450 nm was measured on a VICTOR X3 Multilabel Plate Reader (Perkin Elmer, Waltham, MA). All incubations were performed at room temperature on a plate shaker at 650 rpm. The wells were washed with PBS three times both after sample and antibody incubation. The TMB reaction was performed in the dark for 10 minutes. […] The absorbance at 450 nm of the negative controls was considered as background and subtracted from the absorbance of the plasma samples.\nFree peptide 5A was used as a positive control in the ELISA described above with a lower limit of detection of 1 ng/mL (data not shown). Nanoparticles containing a known concentration of peptide 5A, were used to generate a standard curve for the quantification of blood plasma samples. The standard curve data were fitted to a Hill curve using Graphpad Prism (Graphpad Software, La Jolla, CA) and the Hill equation was used to calculate the concentration of peptide 5A in blood plasma samples from the absorbance at 450 nm (See S1 Table)."}, "[2]": {"assay": "LC/MS quantification of peptide 5A in blood plasma of nanoparticle injected rats", "assay_type": "in vivo, Wistar rats", "settings": "same rat plasma samples", "procedure": "as §1, with “observed. […]” for “observed.”\nPeptide 5A standards were prepared by spiking rat plasma with peptide 5A+B and subsequently reducing the disulfide bond between peptide 5A and 5B, yielding free peptide 5A as depicted in Fig 1. […] (Neither the peaks corresponding to the mass of peptide 5B nor the unreduced peptide 5A+B were analyzed, see LC-MS analysis section). […]\nPlasma samples for LC/MS were prepared by adding 300 μL of 10 mM TCEP in loading mobile phase mix to 30 μL of sample. […] The filtrate was transferred to autosampler vials and analyzed or frozen at -80°C until analysis.\nSamples with expected concentrations higher than the upper limit of quantification were diluted with rat plasma prior to sample preparation. […]"}, "[3]": {"settings": "i.v. nanoparticles 17.25 mg/kg = 0.5 mg peptide 5A per kg, Wistar rats, n = 3"}},
  "data": [
    {"substance": "napvsipqKGGC [peptide 5A, reporter peptide napvsipqKGGC functionalized with biotin and carboxyfluorescein, attached to nanoparticles]", "values": [
      {"measurement": "peptide 5A plasma concentration (ELISA), highest concentration", "setting": "[1]; 15 minutes after injection, i.v. lateral tail vein, nanoparticles 17.25 mg/kg = 0.5 mg peptide 5A per kg, male Wistar rats, plasma diluted 1/500 in PBS, mean ± S.E.M., 3 animals", "result": "2706 ± 466", "unit": "ng/mL"},
      {"measurement": "time after injection up to which the peptide was detected in plasma (ELISA)", "setting": "[1]; [3]", "result": "up to 2 hours"},
      {"measurement": "time of highest plasma concentration (ELISA)", "setting": "[1]; [3]", "result": 15, "unit": "min"},
      {"measurement": "peptide 5A plasma concentration (ELISA)", "setting": "[1]; time point 0 (immediately after injection), i.v. lateral tail vein, nanoparticles 17.25 mg/kg = 0.5 mg peptide 5A per kg, male Wistar rats, plasma diluted 1/500 in PBS, mean ± S.E.M., 3 animals", "result": "1661 ± 514", "unit": "ng/mL"},
      {"measurement": "factor by which plasma concentrations measured by LC/MS were higher than by ELISA", "setting": "[2]", "result": "~4"}
    ]}
  ]
}
